The values below come from ChEMBL document CHEMBL1135263, “Reductive amination products containing naphthalene and indole moieties bind to melanocortin receptors” (Bioorg Med Chem Lett, 2002).

One assay addresses Melanocortin receptor 5 (Homo sapiens, UniProt P33032). Nature of the assay: Tested for its binding affinity towards human recombinant Melanocortin 5 receptor by using radioligand binding assay.
Another assay addresses Melanocortin receptor 4 (Homo sapiens, UniProt P32245). Nature of the assay: Tested for its binding affinity towards human recombinant Melanocortin 4 receptor by using radioligand binding assay.
For assay [1], the target named is T1, Melanocyte-stimulating hormone receptor (Homo sapiens, UniProt Q01726). As to the kind of experiment: Tested for its binding affinity towards human recombinant Melanocortin 1 receptor by using radioligand binding assay.
T1 sequence (Q01726 whole entry): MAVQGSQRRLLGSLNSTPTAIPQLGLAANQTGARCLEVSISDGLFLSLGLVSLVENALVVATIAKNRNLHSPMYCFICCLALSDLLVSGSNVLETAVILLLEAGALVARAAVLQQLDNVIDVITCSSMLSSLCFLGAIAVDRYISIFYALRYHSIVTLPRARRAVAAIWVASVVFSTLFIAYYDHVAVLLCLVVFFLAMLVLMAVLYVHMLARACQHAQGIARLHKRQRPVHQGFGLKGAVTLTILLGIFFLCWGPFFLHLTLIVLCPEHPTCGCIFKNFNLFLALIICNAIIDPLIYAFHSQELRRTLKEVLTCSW
For assay [2], the target named is T2, Melanocortin receptor 3 (Homo sapiens, UniProt P41968). Nature of the assay: Tested for its binding affinity towards human recombinant Melanocortin 3 receptor by using radioligand binding assay.
T2 sequence (P41968 whole entry): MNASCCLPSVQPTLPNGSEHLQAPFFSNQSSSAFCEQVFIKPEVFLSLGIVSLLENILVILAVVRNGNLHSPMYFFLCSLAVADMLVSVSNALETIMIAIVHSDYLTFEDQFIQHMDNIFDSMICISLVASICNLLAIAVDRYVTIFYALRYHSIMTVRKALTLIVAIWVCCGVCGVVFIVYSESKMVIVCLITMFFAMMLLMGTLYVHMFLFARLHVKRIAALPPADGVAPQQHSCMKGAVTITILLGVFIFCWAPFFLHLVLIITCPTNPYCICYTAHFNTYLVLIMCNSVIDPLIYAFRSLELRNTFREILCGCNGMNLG
The target of assay [3] is T1, Melanocyte-stimulating hormone receptor. Nature of the assay: Tested for its binding affinity towards human recombinant Melanocortin 1 receptor by using radioligand binding assay; nb = no binding up to 0.5 mM.
The target in assay [4] is T2, Melanocortin receptor 3. As to the kind of experiment: Tested for its binding affinity towards human recombinant Melanocortin 3 receptor by using radioligand binding assay; nb = no binding up to 0.5 mM.

Melanocortin receptor 4, sequence (P32245 whole entry): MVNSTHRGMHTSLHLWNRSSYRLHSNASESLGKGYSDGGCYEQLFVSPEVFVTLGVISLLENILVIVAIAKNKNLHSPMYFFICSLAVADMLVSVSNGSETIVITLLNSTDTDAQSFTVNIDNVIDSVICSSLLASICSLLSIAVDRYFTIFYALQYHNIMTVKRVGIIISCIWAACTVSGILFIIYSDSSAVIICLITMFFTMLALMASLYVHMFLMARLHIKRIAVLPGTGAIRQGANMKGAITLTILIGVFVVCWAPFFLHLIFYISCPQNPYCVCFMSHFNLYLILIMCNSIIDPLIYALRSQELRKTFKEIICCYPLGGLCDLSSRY
Melanocortin receptor 5, sequence (P33032 whole entry): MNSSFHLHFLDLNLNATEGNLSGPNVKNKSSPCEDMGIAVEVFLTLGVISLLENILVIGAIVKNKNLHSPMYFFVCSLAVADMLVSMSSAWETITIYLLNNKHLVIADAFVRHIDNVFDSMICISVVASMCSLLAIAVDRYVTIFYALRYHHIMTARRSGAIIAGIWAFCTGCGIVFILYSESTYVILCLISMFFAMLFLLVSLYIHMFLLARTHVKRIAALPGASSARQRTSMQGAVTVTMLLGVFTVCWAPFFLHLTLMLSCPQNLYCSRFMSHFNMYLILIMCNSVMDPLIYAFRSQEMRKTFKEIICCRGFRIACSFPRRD

Turning to `NC(N)=NCCC[C@H](N)C(=O)N(Cc1cccc2ccccc12)Cc1c[nH]c2ccccc12`, the Ki at Melanocortin receptor 5 was 12 µM; at Melanocortin receptor 4, 70 µM; in assay [1], 11 µM; at Melanocortin receptor 3 [2], 52 µM.
For `NCCNC(=O)[C@H](CNCc1ccc2ccccc2c1)NCc1ccc2ccccc2c1`, the Ki came out at 28 µM on Melanocortin receptor 5, 44 µM on Melanocortin receptor 4, 27 µM in assay [1] and 58 µM at Melanocortin receptor 3 [2].
On the same counts, the results for `c1ccc2c(CCNCc3c[nH]c4ccccc34)c[nH]c2c1` are 18 µM, 161 µM, 32 µM and 86 µM.
The matching figures for `N=C(N)NCCCNCc1ccc2ccccc2c1`: 36 µM, 56 µM, 19 µM and 31 µM.
On to `NCCCNC(=O)[C@H](CNCc1c[nH]c2ccccc12)NCc1ccc2ccccc2c1`, for which the Ki was determined as 36 µM at Melanocortin receptor 5, 27 µM at Melanocortin receptor 4, 0.7 µM in assay [1] and 56 µM at Melanocortin receptor 3 [2].
Turning to `c1ccc2c(CN3CCNCC3)c[nH]c2c1`, the Ki at Melanocortin receptor 5 is 256 µM; on Melanocortin receptor 4, over 1000 µM; in assay [1] it was over 1000 µM; on Melanocortin receptor 3 [2] it was over 1000 µM.
Turning to `c1ccc2cc(CNCCc3c[nH]c4ccccc34)ccc2c1`, the Ki at Melanocortin receptor 5 came to 14 µM; at Melanocortin receptor 4, 118 µM; in assay [1], 16 µM; on Melanocortin receptor 3 [2], 59 µM.
The matching figures for `c1ccc2cc(CNCc3cccc4ccccc34)ccc2c1`: 100 µM, over 1000 µM, over 1000 µM and over 1000 µM.
On to `NCCCNCc1ccc2ccccc2c1`, for which the Ki on Melanocortin receptor 5 is 43 µM; at Melanocortin receptor 4, 94 µM; in assay [1], over 1000 µM; on Melanocortin receptor 3 [2], 57 µM.
On the same counts, the results for `c1ccc2c(CNCc3c[nH]c4ccccc34)cccc2c1` are 38 µM, 161 µM, 26 µM and 214 µM.
The matching figures for `N[C@H](CCC(=O)O)C(=O)N(Cc1ccc2ccccc2c1)Cc1cccc2ccccc12`: 45 µM, 89 µM, 46 µM and 294 µM.
Consider `NCCCCNC(=O)[C@H](CCCCNCc1c[nH]c2ccccc12)NCc1ccc2ccccc2c1`, for which the Ki at Melanocortin receptor 5 turned out to be 173 µM; on Melanocortin receptor 4, 24 µM; in assay [1], 9.8 µM; on Melanocortin receptor 3 [2], 167 µM.
On the same counts, the results for `NCCCNCc1c[nH]c2ccccc12` are 150 µM, 104 µM, 28 µM and 145 µM.
The matching figures for `N=C(N)N1CCN(Cc2ccc3ccccc3c2)CC1`: 74 µM, 68 µM, over 1000 µM and over 1000 µM.
The matching figures for `N=C(N)N1CCN(Cc2c[nH]c3ccccc23)CC1`: over 1000 µM, over 1000 µM, over 1000 µM and over 1000 µM.
With `N=C(N)NCCCNCc1c[nH]c2ccccc12`, the Ki at Melanocortin receptor 5 was determined as 47 µM; at Melanocortin receptor 4, 107 µM; in assay [1], 12 µM; at Melanocortin receptor 3 [2], 45 µM.
For the compound `NCCNCc1ccc2ccccc2c1`, the Ki was 83 µM on Melanocortin receptor 5, “Not Active” in assay [3], 8.8 µM at Melanocortin receptor 4 and “Not Active” at Melanocortin receptor 3 [4].
As to `c1ccc2cc(CN3CCNCC3)ccc2c1`, the Ki at Melanocortin receptor 5 was 141 µM; at Melanocortin receptor 4, over 1000 µM; in assay [1] it was over 1000 µM; at Melanocortin receptor 3 [2], over 1000 µM.
In the case of `NC(N)=NCCCC(N)C(=O)N(CCc1c[nH]c2ccccc12)Cc1ccc2ccccc2c1` (single isomer, unassigned), the Ki on Melanocortin receptor 5 was found to be 10 µM; at Melanocortin receptor 4, 15 µM; in assay [1], 1.5 µM; on Melanocortin receptor 3 [2], 19 µM.
The matching figures for `NC(N)=NCCC[C@H](N)C(=O)N(Cc1ccc2ccccc2c1)Cc1cccc2ccccc12` (stereo in doubt; 11b): 2.5 µM, 5.4 µM, 0.69 µM and 9 µM.
As to `NC(N)=NCCC[C@H](N)C(=O)N(Cc1ccc2ccccc2c1)Cc1cccc2ccccc12` (stereo in doubt; 11c), the Ki at Melanocortin receptor 5 was 2.7 µM; at Melanocortin receptor 4, 2.1 µM; in assay [1], 1.2 µM; at Melanocortin receptor 3 [2], 18 µM.

As a reminder, the Ki is the equilibrium dissociation constant of an inhibitor or competing ligand from its target.
